Assay results taken from patent US20230159532A1, “PARATHYROID HORMONE (PTH) RECEPTOR ANTAGONISTS AND USES THEREOF” (Crinetics Pharmaceuticals, Inc., priority 2021, published 2023).

Biological target: T1, human PTHR1 receptor (Homo sapiens, UniProt Q03431)
T1 construct: purchased Eurofins HTS030M
T1 sequence (Q03431 27-593): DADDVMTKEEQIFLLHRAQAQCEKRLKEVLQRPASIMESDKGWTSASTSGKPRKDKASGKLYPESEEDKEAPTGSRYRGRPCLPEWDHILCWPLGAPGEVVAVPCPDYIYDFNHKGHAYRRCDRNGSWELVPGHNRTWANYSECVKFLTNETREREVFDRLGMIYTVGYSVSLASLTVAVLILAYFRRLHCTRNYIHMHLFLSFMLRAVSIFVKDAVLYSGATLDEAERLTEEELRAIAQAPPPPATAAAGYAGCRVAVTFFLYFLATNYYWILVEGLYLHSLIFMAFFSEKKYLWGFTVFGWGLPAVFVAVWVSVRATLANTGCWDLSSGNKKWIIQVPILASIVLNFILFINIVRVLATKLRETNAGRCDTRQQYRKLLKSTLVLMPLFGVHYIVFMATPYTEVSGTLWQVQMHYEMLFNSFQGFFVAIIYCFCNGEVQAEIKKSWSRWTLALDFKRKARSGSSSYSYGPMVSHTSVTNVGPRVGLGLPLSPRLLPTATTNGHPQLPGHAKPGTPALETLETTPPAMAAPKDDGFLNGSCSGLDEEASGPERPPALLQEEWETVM
Assay: Competitive antagonist binding assay for hPTH-R1 (radioactive competition binding, SPA beads)
Conditions: human PTHR1 membranes, [125I]-[Nle8,18,Tyr34]-PTH(1-34) 0.2 nM, 90 minutes at room temperature; read-out: hPTHR1 Ki
Procedure, shortened: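 Human PTHR1 membranes on SPA beads incubated 90 min at room temperature with compound (typically 0-10,000 nM final) and 0.2 nM [125I]-[Nle8,18,Tyr34]-PTH(1-34) in HEPES buffer with MgCl2, CaCl2, BSA, Triton X-100 and protease inhibitors, pH 7.4. Scintillation signal read; Ki values derived.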

`CCN1C(=O)N(c2c(F)cc(NCCNCCO)cc2F)c2cc(C#N)ccc2-c2cc(C(F)(F)F)cnc21` [1-98, 10-[2,6-difluoro-4-({2-[(2-hydroxyethyl)amino]ethyl}amino)phenyl]-8-ethyl-9-oxo-4-(trifluoromethyl)-6,8,10-triazatricyclo[9.4.0.0^2,7]pentadeca-1(11),2(7),3,5,12,14-hexaene-13-carbonitrile] and `CCN1C(=O)N(c2c(F)cc(NCCNCCO)cc2F)c2cc(Cl)ccc2-c2c1ncc(F)c2C` [3-6, 13-chloro-10-[2,6-difluoro-4-({2-[(2-hydroxyethyl)amino]ethyl}amino)phenyl]-8-ethyl-4-fluoro-3-methyl-6,8,10-triazatricyclo[9.4.0.0^2,7]pentadeca-1(11),2(7),3,5,12,14-hexaen-9-one] cannot be ordered by Ki: under 100 nM for the first, under 100 nM for the second.

First: CCN1C(=O)N(c2c(F)cc(NCCN)cc2F)c2cc(Cl)ccc2-c2c1ncc(Cl)c2C [3-8, 10-{4-[(2-aminoethyl)amino]-2,6-difluorophenyl}-4,13-dichloro-8-ethyl-3-methyl-6,8,10-triazatricyclo[9.4.0.0^2,7]pentadeca-1(11),2(7),3,5,12,14-hexaen-9-one]
Second: CCN1C(=O)N(c2c(F)cc(N3CCCNCC3)cc2F)c2cc(C#N)ccc2-c2cc(Cl)cnc21 [1-143, 4-chloro-10-[4-(1,4-diazepan-1-yl)-2,6-difluorophenyl]-8-ethyl-9-oxo-6,8,10-triazatricyclo[9.4.0.0^2,7]pentadeca-1(11),2(7),3,5,12,14-hexaene-13-carbonitrile]
The Ki of the first is higher: 100 to 1000 nM for the first, under 100 nM for the second. The second binds more tightly here.

`CCN1C(=O)N(c2c(F)cc(NCCN[C@H]3C[C@H](C(=O)O)C3)cc2F)c2cc(C#N)ccc2-c2cc(Cl)cnc21` [1-206, (1r,3r)-3-({2-[(4-{4-chloro-13-cyano-8-ethyl-9-oxo-6,8,10-triazatricyclo[9.4.0.0^2,7]pentadeca-1(11),2(7),3,5,12,14-hexaen-10-yl}-3,5-difluorophenyl)amino]ethyl}amino)cyclobutane-1-carboxylic acid] and `CCN1C(=O)N(c2c(F)cc(NCCNCCO)cc2F)c2c(ccc(Cl)c2F)-c2cc(Cl)cnc21` [3-10, 4,13-dichloro-10-[2,6-difluoro-4-({2-[(2-hydroxyethyl)amino]ethyl}amino)phenyl]-8-ethyl-12-fluoro-6,8,10-triazatricyclo[9.4.0.0^2,7]pentadeca-1(11),2(7),3,5,12,14-hexaen-9-one] cannot be ordered by Ki: under 100 nM for the first, under 100 nM for the second.

`CCN1C(=O)N(c2c(F)cc(NCCNC[C@@H](O)CO)cc2F)c2cc(C#N)ccc2-c2cc(F)cnc21` [1-194, 10-{4-[(2-{[(2R)-2,3-dihydroxypropyl]amino}ethyl)amino]-2,6-difluorophenyl}-8-ethyl-4-fluoro-9-oxo-6,8,10-triazatricyclo[9.4.0.0^2,7]pentadeca-1(11),2(7),3,5,12,14-hexaene-13-carbonitrile] and `CCN1C(=O)N(c2c(F)cc(NCCNC)cc2F)c2cc(Cl)ccc2-c2cc(C3CC3)cnc21` [1-24, 13-chloro-4-cyclopropyl-10-(2,6-difluoro-4-{[2-(methylamino)ethyl]amino}phenyl)-8-ethyl-6,8,10-triazatricyclo[9.4.0.0^2,7]pentadeca-1(11),2(7),3,5,12,14-hexaen-9-one] cannot be ordered by Ki: under 100 nM for the first, under 100 nM for the second.

`CNCCNc1cc(F)c(N2C(=O)N(C(C)C)c3ncc(F)cc3-c3c(F)cc(Cl)cc32)c(F)c1` [1-113, 13-chloro-10-(2,6-difluoro-4-{[2-(methylamino)ethyl]amino}phenyl)-4,15-difluoro-8-(propan-2-yl)-6,8,10-triazatricyclo[9.4.0.0^2,7]pentadeca-1(11),2(7),3,5,12,14-hexaen-9-one] and `CCN1C(=O)N(c2ncc(NCCNCCO)cc2F)c2cc(Cl)ccc2-c2cc(Cl)cnc21` [2-10, 4,13-dichloro-8-ethyl-10-[3-fluoro-5-({2-[(2-hydroxyethyl)amino]ethyl}amino)pyridin-2-yl]-6,8,10-triazatricyclo[9.4.0.0^2,7]pentadeca-1(11),2(7),3,5,12,14-hexaen-9-one] cannot be ordered by Ki: under 100 nM for the first, under 100 nM for the second.

“3-({2-[(4-{4-chloro-13-cyano-8-methyl-9-oxo-6,8,10-triazatricyclo[9.4.0.0^2,7]pentadeca-1(11),2(7),3,5,12,14-hexaen-10-yl}-3,5-difluorophenyl)amino]ethyl}amino)propanoic acid [1-217]” and `CNCCNc1cc(F)c(N2C(=O)N(C)c3ncc(Cl)cc3-c3c(F)cc(C#N)cc32)c(F)c1` [1-115, 4-chloro-10-(2,6-difluoro-4-{[2-(methylamino)ethyl]amino}phenyl)-15-fluoro-8-methyl-9-oxo-6,8,10-triazatricyclo[9.4.0.0^2,7]pentadeca-1(11),2(7),3,5,12,14-hexaene-13-carbonitrile] cannot be ordered by Ki: under 100 nM for the first, under 100 nM for the second.

`CCN1C(=O)N(c2c(F)cc(NCCN[C@@H](CC(C)C)C(=O)O)cc2F)c2cc(C#N)ccc2-c2cc(Cl)cnc21` [1-240, (2S)-2-({2-[(4-{4-chloro-13-cyano-8-ethyl-9-oxo-6,8,10-triazatricyclo[l9.4.0.0^2,7]pentadeca-1(11),2(7),3,5,12,14-hexaen-10-yl}-3,5-difluorophenyl)amino]ethyl}amino)-4-methylpentanoic acid] and `CCN1C(=O)N(c2c(F)cc(NCCNCCO)cc2F)c2cc(Cl)ccc2-c2cc(F)cnc21` [1-17, 13-chloro-10-[2,6-difluoro-4-({2-[(2-hydroxyethyl)amino]ethyl}amino)phenyl]-8-ethyl-4-fluoro-6,8,10-triazatricyclo[9.4.0.0^2,7]pentadeca-1(11),2(7),3,5,12,14-hexaen-9-one] cannot be ordered by Ki: under 100 nM for the first, under 100 nM for the second.

`CCN1C(=O)N(c2c(F)cc(NCCN[C@H](C)CO)cc2F)c2cc(C#N)ccc2-c2cc(F)cnc21` [1-214, 10-{2,6-difluoro-4-[(2-{[(2R)-1-hydroxypropan-2-yl]amino}ethyl)amino]phenyl}-8-ethyl-4-fluoro-9-oxo-6,8,10-triazatricyclo[9.4.0.0^2,7]pentadeca-1(11),2(7),3,5,12,14-hexaene-13-carbonitrile] and `CCN1C(=O)N(c2ncc(NCCNC3CCOCC3)cc2F)c2cc(Cl)ccc2-c2cc(Cl)cnc21` [2-14, 4,13-dichloro-8-ethyl-10-[3-fluoro-5-({2-[(oxan-4-yl)amino]ethyl}amino)pyridin-2-yl]-6,8,10-triazatricyclo[9.4.0.0^2,7]pentadeca-1(11),2(7),3,5,12,14-hexaen-9-one] cannot be ordered by Ki: under 100 nM for the first, under 100 nM for the second.

`CC(C)N1C(=O)N(c2c(F)cc(NCCNCCO)cc2F)c2cc(C#N)cc(F)c2-c2cc(F)cnc21` [1-108, 10-[2,6-difluoro-4-({2-[(2-hydroxyethyl)amino]ethyl}amino)phenyl]-4,15-difluoro-9-oxo-8-(propan-2-yl)-6,8,10-triazatricyclo[9.4.0.0^2,7]pentadeca-1(11),2(7),3,5,12,14-hexaene-13-carbonitrile] and `CCN1C(=O)N(c2c(F)cc(NCCNC)cc2F)c2cc(C#N)ccc2-c2cc(F)cnc21` [1-81, 10-(2,6-difluoro-4-{[2-(methylamino)ethyl]amino}phenyl)-8-ethyl-4-fluoro-9-oxo-6,8,10-triazatricyclo[9.4.0.0^2,7]pentadeca-1(11),2(7),3,5,12,14-hexaene-13-carbonitrile] cannot be ordered by Ki: under 100 nM for the first, under 100 nM for the second.

`Cc1cc(Cl)cc2c1-c1cc(F)cnc1N(C)C(=O)N2c1c(F)cc(NCCNCCO)cc1F` [1-76, 13-chloro-10-[2,6-difluoro-4-({2-[(2-hydroxyethyl)amino]ethyl}amino)phenyl]-4-fluoro-8,15-dimethyl-6,8,10-triazatricyclo[9.4.0.0^2,7]pentadeca-1(11),2(7),3,5,12,14-hexaen-9-one] and `CCCN1C(=O)N(c2c(F)cc(NCCNCCO)cc2F)c2cc(Cl)ccc2-c2cc(Cl)cnc21` [1-49, 4,13-dichloro-10-[2,6-difluoro-4-({2-[(2-hydroxyethyl)amino]ethyl}amino)phenyl]-8-propyl-6,8,10-triazatricyclo[9.4.0.0^2,7]pentadeca-1(11),2(7),3,5,12,14-hexaen-9-one] cannot be ordered by Ki: under 100 nM for the first, under 100 nM for the second.

`CCN1C(=O)N(c2ccc(NCCNCCO)cc2)c2cc(Cl)ccc2-c2cc(Cl)cnc21` [2-9, 4,13-dichloro-8-ethyl-10-[4-({2-[(2-hydroxyethyl)amino]ethyl}amino)phenyl]-6,8,10-triazatricyclo[9.4.0.0^2,7]pentadeca-1(11),2(7),3,5,12,14-hexaen-9-one] and `CCN1C(=O)N(c2c(F)cc(NCCNCCCS(=O)(=O)O)cc2F)c2cc(C#N)ccc2-c2cc(F)cnc21` [1-221, 3-({2-[(4-{13-cyano-8-ethyl-4-fluoro-9-oxo-6,8,10-triazatricyclo[9.4.0.0^2,7]pentadeca-1(11),2(7),3,5,12,14-hexaen-10-yl}-3,5-difluorophenyl)amino]ethyl}amino)propane-1-sulfonic acid] cannot be ordered by Ki: under 100 nM for the first, under 100 nM for the second.

`CCN1C(=O)N(c2c(F)cc(NCCNCC(N)=O)cc2F)c2cc(C#N)ccc2-c2cc(Cl)cnc21` [1-162, 2-({2-[(4-{4-chloro-13-cyano-8-ethyl-9-oxo-6,8,10-triazatricyclo[9.4.0.0^2,7]pentadeca-1(11),2(7),3,5,12,14-hexaen-10-yl}-3,5-difluorophenyl)amino]ethyl}amino)acetamide] was tested, and the Ki was under 100 nM.
